# According to patent US5591726A, “Heterocyclylalkyl diarylboron ester and thioester fungicidal agents” (American Cyanamid Company, priority 1994, dated 1997):
# Columns and labels:
# Venturia inaequalis = test: In vivo fungicidal evaluation, Apple Scab (AS); settings: 200 ppm foliar spray; also: ranges in brackets are in %
# Protocol: (§1) Test compounds are dissolved or suspended in acetone and diluted with deionized water containing about 0.05% TWEEN®20, a polyoxyethylene sorbitan monolaurate surfactant manufactured by Atlas Chemical Industries, to give a concentration of 200 ppm. Host plants are sprayed with the test solution, dried and inoculated with fungi. When disease symptom development is optimal, the plants are rated for disease control according to the rating scale shown below. Each test contains inoculated treated plants, inoculated untreated plants and a reference standard. When more than one test is run, the data are averaged. The data obtained are shown in Table I. |AS Apple Scab Venturia inaequalis
# Plasmopara viticola = test: In vivo fungicidal evaluation, Grape Downy Mildew (GDM); settings: 200 ppm foliar spray; also: ranges in brackets are in %
# Protocol: as §1, with “|GDM Grape Downy Mildew | Plasmopara viticola” for “|AS Apple Scab Venturia inaequalis”
# Botrytis cinerea = test: In vivo fungicidal evaluation, Pepper Botrytis (PB); settings: 200 ppm foliar spray; also: ranges in brackets are in %
# Protocol: as §1, with “|PB Pepper Botrytis Botrytis cinerea” for “|AS Apple Scab Venturia inaequalis”
# Pyricularia grisea = type: in vivo; settings: Rice Blast; 200 ppm foliar spray
# Cercospora beticola = test: In vivo fungicidal evaluation, Sugar Beet Cercospora (SBC); settings: 200 ppm foliar spray; also: ranges in brackets are in %
# Protocol: as §1, with “|SBC Sugar Beet Cercospora | Cercospora beticola” for “|AS Apple Scab Venturia inaequalis”
# Alternaria solani = test: In vivo fungicidal evaluation, Tomato Early Blight (TEB); settings: 200 ppm foliar spray; also: ranges in brackets are in %
# Protocol: as §1, with “|TEB Tomato Early Blight | Alternaria solani” for “|AS Apple Scab Venturia inaequalis”
# [1] = tested on: Erysiphe graminis f. sp. tritici; test: In vivo fungicidal evaluation, Wheat Powdery Mildew (WPM); settings: 200 ppm foliar spray; also: ranges in brackets are in %
# Protocol: as §1, with “|WPM Wheat Powdery Mildew | Erysiphe graminis | f. sp. tritici” for “|AS Apple Scab Venturia inaequalis”
# Septoria nodorum = test: In vivo fungicidal evaluation, Wheat Septoria Nodorum (WSN); settings: 200 ppm foliar spray
# Protocol: Test compounds are dissolved or suspended in acetone and diluted with deionized water containing about 0.05% TWEEN®20, a polyoxyethylene sorbitan monolaurate surfactant manufactured by Atlas Chemical Industries, to give a concentration of 200 ppm.
# Host plants are sprayed with the test solution, dried and inoculated with fungi. When disease symptom development is optimal, the plants are rated for disease control according to the rating scale shown below. Each test contains inoculated treated plants, inoculated untreated plants and a reference standard. When more than one test is run, the data are averaged.
# WSN Wheat Septoria Nodorum
# [2] = tested on: Fusarium oxysporum f. sp. cucumerinum; test: In vitro fungicidal evaluation, FUSOXC; type: cell-based; settings: 25 ppm; 3-7 days at 21° C. Also: ranges in brackets are in %.
# Protocol: (§2) Test compounds are dissolved or suspended in acetone and dispersed into cell well plates containing a suspension of ground fungal mycelia/spores in a nutrient broth. Assay plates are incubated for 3-7 days at 21° C. Growth inhibition is measured visually and is rated using the following scale:
# (§3) Untreated controls, solvent blanks and reference standards are included in each test.
# (§4) Assay fungi include the plant pathogens, Pythium ultimum (PYTHUL); Rhizoctonia solani (RHIZSO); Fusarium oxysporum f. sp. cucumerinum (FUSOXC); and Pseudocercosporella herpotrichoides (PSDCHE).
# (§5) When more than one test is run, the data are averaged. The compounds evaluated are reported by compound number given in Example 3.
# Pythium ultimum = test: In vitro fungicidal evaluation, PYTHUL; type: cell-based; settings: 25 ppm; 3-7 days at 21° C. Also: ranges in brackets are in %.
# Protocol: as §2, §3, §4, §5
# Rhizoctonia solani = test: In vitro fungicidal evaluation, RHIZSO; type: cell-based; settings: 25 ppm; 3-7 days at 21° C. Also: ranges in brackets are in %.
# Protocol: as §2, §3, §4, §5
# [3] = tested on: Pseudocercosporella herpotrichoides; test: In vitro fungicidal evaluation, PSDCHE; type: cell-based; settings: 25 ppm; 3-7 days at 21° C. Also: ranges in brackets are in %.
# Protocol: as §2, §3, §4, §5
# [4] = tested on: Septoria nodorum (propiconazole-resistant and -sensitive strains); type: cell-based; settings: EC50 resistant strain / EC50 sensitive strain, 50 to 54 hours
# [5] = tested on: Ustilago avenae (triadimefon-resistant and -sensitive strains); type: cell-based; settings: EC50 resistant strain / EC50 sensitive strain, 50 to 54 hours
# [6] = tested on: Cladosporium cucumerinum (fenarimol-resistant and -sensitive strains); type: cell-based; settings: EC50 resistant strain / EC50 sensitive strain, 50 to 54 hours
compound,measurement,setting,value
"CC(C)(C)C(CCc1ccc(Cl)cc1)(Cn1cncn1)OB(c1ccccc1)c1ccccc1 (stereo not drawn) [Compound 3, 1-Tert-butyl-3-(p-chlorophenyl)-1-(1H-1,2,4-triazol-1-ylmethyl)propyl diphenylborinate]","Disease control rating, AS",Venturia inaequalis,8 (96-99)
same,"Disease control rating, GDM",Plasmopara viticola,9 (100)
same,"Disease control rating, PB",Botrytis cinerea,6 (75-89)
same,"Disease control rating, RB",Pyricularia grisea,6 (75-89)
same,"Disease control rating, SBC",Cercospora beticola,6 (75-89)
same,"Disease control rating, TEB",Alternaria solani,6 (75-89)
same,"Disease control rating, WPM",[1],8 (96-99)
same,"Disease control rating, WSN",Septoria nodorum,0 (0)
same,"Growth inhibition rating, FUSOXC",[2],9 (100)
same,"Growth inhibition rating, PYTHUL",Pythium ultimum,9 (100)
same,"Growth inhibition rating, RHIZSO",Rhizoctonia solani,9 (100)
same,"Growth inhibition rating, PSDCHE",[3],0 (0)
same,"Resistance Factor, Septoria nodorum",[4],1.8
same,"Resistance Factor, Ustilago avenae",[5],2.0
same,"Resistance Factor, Cladosporium cucumerinum",[6],1.7
